According to patent US20210395210A1, “INHIBITION OF BACTERIAL CHAPERONIN SYSTEMS” (THE TRUSTEES OF INDIANA UNIVERSITY, priority 2018, published 2021):
Like-named read-outs stand apart in the source and are kept apart here.

Assays:
native MDH = biological target: T1, native MDH (Sus scrofa, UniProt P00346); experiment: Counter-screen for inhibition of native MDH enzymatic activity; assay type: biochemical, pig
T1 construct: soluble pig heart MDH from Roche, product #10127248001; purchased Roche 10127248001; host or cells: pig heart
T1 sequence (P00346 25-338): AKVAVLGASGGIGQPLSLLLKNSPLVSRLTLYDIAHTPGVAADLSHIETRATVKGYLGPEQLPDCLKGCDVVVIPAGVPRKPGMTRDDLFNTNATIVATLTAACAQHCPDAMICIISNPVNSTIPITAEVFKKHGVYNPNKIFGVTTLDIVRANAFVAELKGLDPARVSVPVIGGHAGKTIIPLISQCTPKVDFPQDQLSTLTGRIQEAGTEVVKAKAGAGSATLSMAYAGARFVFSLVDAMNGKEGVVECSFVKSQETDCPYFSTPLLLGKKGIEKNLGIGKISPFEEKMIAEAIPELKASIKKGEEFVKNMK
Summary of the method: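 Compounds were added only after GroEL/ES-mediated MDH refolding (45 min, 37 °C) had been EDTA-quenched, so only refolded MDH activity is probed.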

[1] = test system: Enterococcus faecium (ATCC 19434); experiment: Bacterial proliferation assay, E. faecium; assay type: cell-based
Summary of the method: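 Enterococcus faecium ATCC 19434 was grown overnight at 37° C. in BHI broth supplemented with 25 mg/L Ca^2+ and 12.5 mg/L Mg^2+, subcultured 1:5, and diluted to OD600 0.017. 30 μL portions went into 384-well plates holding compounds, sealed with oxygen-permeable membranes, and incubated stagnant at 37° C. OD600 was read at 24 h to give EC50.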

[2] = test system: Methicillin resistant S. aureus (MRSA) (ATCC BAA-44); experiment: Bacterial proliferation assay, MRSA; assay type: cell-based, Staphylococcus aureus; settings: Staphylococcus aureus
Summary of the method: (§1)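 Cultures in BHI broth with 25 mg/L Ca2+ and 12.5 mg/L Mg2+ were diluted to OD600 0.017 and exposed to compounds in 384-well plates at 37 °C without shaking. OD600 was read at 6-8 h (S. aureus, E. cloacae, P. aeruginosa) or 24 h (A. baumannii). EC50 values were averaged over quadruplicates.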

[3] = test system: Klebsiella Pneumonia (ATCC 13883); experiment: Bacterial proliferation assay, K. pneumoniae; assay type: cell-based
Summary of the method: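 Klebsiella pneumoniae ATCC 13883 was cultured in Brain Heart Infusion medium supplemented with 25 mg/L Ca^2+ and 12.5 mg/L Mg^2+. Cells were diluted to OD600 0.017, and 30 μL was added to 384-well plates holding 0.5 μL compound in 20 μL media. Plates were incubated stagnantly at 37° C., and OD600 was read at 6-8 h to determine EC50.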

[4] = test system: Acinetobacter baumannii (ATCC 19606); experiment: Bacterial proliferation assay, A. baumannii; assay type: cell-based
Summary of the method: as §1

[5] = test system: Pseudomonas aeruginosa (ATCC 10145); experiment: Bacterial proliferation assay, P. aeruginosa; assay type: cell-based
Summary of the method: as §1

[6] = log of IC50 (μM scale), with standard deviation, read-out: log(IC50) Native MDH Reporter (converted)
[7] = read-out: Biochemical Assay IC50 Native MDH Reporter
[8] = ATCC19434, OD600 at 24 h, read-out: Bacterial Proliferation EC50 E. faecium
[9] = ATCC19434, log of EC50 (μM scale), with standard deviation, read-out: log(EC50) Bacterial Proliferation Assay C. faecium (converted)
[10] = MRSA, log of EC50 (μM scale), with standard deviation, read-out: log(EC50) Bacterial Proliferation Assay S. aureus Resistant (converted)
[11] = ATCC13883, OD600 at 6-8 h, read-out: Bacterial Proliferation EC50 K. pneumoniae
[12] = ATCC13883, log of EC50 (μM scale), with standard deviation, read-out: log(EC50) Bacterial Proliferation Assay K. pneumoniae (converted)
[13] = ATCC19606, OD600 at 24 h, read-out: Bacterial Proliferation EC50 A. baumannii
[14] = ATCC19606, log of EC50 (μM scale), with standard deviation, read-out: log(EC50) Bacterial Proliferation Assay A. baumannii (converted)
[15] = ATCC10145, OD600 at 6-8 h, read-out: Bacterial Proliferation EC50 P. aeruginosa
[16] = ATCC10145, log of EC50 (μM scale), with standard deviation, read-out: log(EC50) Bacterial Proliferation Assay P. aeruginosa (converted)

O=C(Nc1ccc(Sc2nc3ccccc3s2)cc1)c1cccc(Br)c1O [Compound 6, N-(4-(Benzo[d]thiazol-2-ylthio)phenyl)-3-bromo-2-hydroxybenzamide]
inhibition of native MDH enzymatic activity (in words) (native MDH; false-positive counter-screen): inactive against the reporter enzymes
IC50 (native MDH; [6]): > 63.1 µM
IC50 (native MDH; [7]): > 63 µM
EC50 ([1]; ATCC19434, 24 h, read-out: Bacterial Proliferation EC50 E. faecium): 11 µM
EC50 ([1]; ATCC19434, read-out: log(EC50) Bacterial Proliferation Assay C. faecium (converted)): 11.2 µM
EC50 ([2]; read-out: Bacterial Proliferation EC50 S. aureus Resistant): 1.1 µM
EC50 ([2]; read-out: log(EC50) Bacterial Proliferation Assay S. aureus Resistant (converted)): 1.1 µM
EC50 ([3]; ATCC13883, read-out: Bacterial Proliferation EC50 K. pneumoniae): > 100 µM
EC50 ([3]; ATCC13883, read-out: log(EC50) Bacterial Proliferation Assay K. pneumoniae (converted)): > 100 µM
EC50 ([4]; ATCC19606, 24 h, read-out: Bacterial Proliferation EC50 A. baumannii): 12 µM
EC50 ([4]; ATCC19606, read-out: log(EC50) Bacterial Proliferation Assay A. baumannii (converted)): 11.5 µM
EC50 ([5]; ATCC10145, read-out: Bacterial Proliferation EC50 P. aeruginosa): > 100 µM
EC50 ([5]; ATCC10145, read-out: log(EC50) Bacterial Proliferation Assay P. aeruginosa (converted)): > 100 µM

COc1c(Br)cccc1C(=O)Nc1ccc(Sc2nc3ccccc3s2)c(Cl)c1 [Compound 30, N-(4-(Benzo[d]thiazol-2-ylthio)-3-chlorophenyl)-3-bromo-2-methoxybenzamide]
IC50 (native MDH; [6]): > 63.1 µM
IC50 (native MDH; [7]): > 63 µM
EC50 [1, 8]: > 100 µM
EC50 [1, 9]: > 100 µM
EC50 [2, 10]: > 100 µM
EC50 [3, 11]: > 100 µM
EC50 [3, 12]: > 100 µM
EC50 [4, 13]: > 100 µM
EC50 [4, 14]: > 100 µM
EC50 [5, 15]: > 100 µM
EC50 [5, 16]: > 100 µM

O=C(Nc1cccc(Cl)c1)c1ccccc1 [Compound 25, N-(3-Chlorophenyl)benzamide]
IC50 (native MDH; [6]): > 63.1 µM
IC50 (native MDH; [7]): > 63 µM
EC50 [1, 8]: > 100 µM
EC50 [1, 9]: > 100 µM
EC50 [2, 10]: > 100 µM
EC50 [3, 11]: > 100 µM
EC50 [3, 12]: > 100 µM
EC50 [4, 13]: > 100 µM
EC50 [4, 14]: > 100 µM
EC50 [5, 15]: > 100 µM
EC50 [5, 16]: > 100 µM

COc1c(Br)cccc1C(=O)Nc1ccccc1 [Compound 42, 3-Bromo-2-methoxy-N-phenylbenzamide]
IC50 (native MDH; [6]): > 63.1 µM
IC50 (native MDH; [7]): > 63 µM
EC50 [1, 8]: > 100 µM
EC50 [1, 9]: > 100 µM
EC50 [2, 10]: > 100 µM
EC50 [3, 11]: > 100 µM
EC50 [3, 12]: > 100 µM
EC50 [4, 13]: > 100 µM
EC50 [4, 14]: > 100 µM
EC50 [5, 15]: > 100 µM
EC50 [5, 16]: > 100 µM
